Data as given in ChEMBL document CHEMBL3992488, “Anticancer agents interacting with membrane glucose transporters” (Medchemcomm, 2016).
Values belong to the molecule of their own block, whether it stands above or below them.

How the values were obtained:
[1] = biological target: T1, Solute carrier family 2, facilitated glucose transporter member 4 (Mus musculus, UniProt P14142); test: Competitive inhibition of GLUT4 in mouse 3T3L1 cells assessed as reduction in insulin-stimulated [3H]-2-deoxy-D-glucose uptake preincubated for 20 mins followed by measured for [3H]-2-deoxy-D-glucose addition measured after 1 to 10 mins by Lineweaver-Burk plot analysis; type: cell-based
T1 sequence (P14142 whole entry): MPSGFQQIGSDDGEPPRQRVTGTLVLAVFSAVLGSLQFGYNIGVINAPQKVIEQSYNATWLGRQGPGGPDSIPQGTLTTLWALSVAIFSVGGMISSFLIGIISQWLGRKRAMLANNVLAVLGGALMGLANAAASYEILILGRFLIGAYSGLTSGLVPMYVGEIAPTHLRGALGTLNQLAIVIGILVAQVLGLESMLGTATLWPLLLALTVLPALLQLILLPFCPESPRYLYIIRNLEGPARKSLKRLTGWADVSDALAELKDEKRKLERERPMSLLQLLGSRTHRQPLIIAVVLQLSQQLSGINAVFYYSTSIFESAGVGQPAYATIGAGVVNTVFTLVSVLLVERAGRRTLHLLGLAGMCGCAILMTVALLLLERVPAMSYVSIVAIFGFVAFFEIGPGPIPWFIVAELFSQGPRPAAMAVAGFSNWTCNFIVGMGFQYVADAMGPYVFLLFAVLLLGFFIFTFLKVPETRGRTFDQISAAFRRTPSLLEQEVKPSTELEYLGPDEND

RCC4 = test: Growth inhibition of VHL-deficient human RCC4 cells by XTT assay; type: functional, cell-based
[2] = biological target: T2, Solute carrier family 2, facilitated glucose transporter member 1 (Homo sapiens, UniProt P11166); test: Inhibition of GLUT1 in human MCF7 cells assessed as reduction in [3H]-DG uptake pretreated for 20 mins followed by [3H]-DG addition measured after 6 mins by liquid scintillation counting method; type: cell-based
T2 sequence (P11166 whole entry): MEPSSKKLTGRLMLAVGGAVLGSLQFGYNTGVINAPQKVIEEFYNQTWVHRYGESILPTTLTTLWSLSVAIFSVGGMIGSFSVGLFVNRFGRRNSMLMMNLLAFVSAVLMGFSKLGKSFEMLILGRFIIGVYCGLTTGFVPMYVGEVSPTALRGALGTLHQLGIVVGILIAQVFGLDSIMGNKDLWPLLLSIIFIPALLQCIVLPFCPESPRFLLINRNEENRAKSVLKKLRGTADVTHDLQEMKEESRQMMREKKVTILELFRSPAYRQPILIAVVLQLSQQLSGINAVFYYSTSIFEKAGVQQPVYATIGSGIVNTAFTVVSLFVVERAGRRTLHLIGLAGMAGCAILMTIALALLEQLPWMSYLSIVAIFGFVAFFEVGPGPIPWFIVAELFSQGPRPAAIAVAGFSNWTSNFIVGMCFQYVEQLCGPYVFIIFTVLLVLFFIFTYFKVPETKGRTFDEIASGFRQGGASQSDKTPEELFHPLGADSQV

[3] = Non-competitive inhibition of glucose transporter in HTR-8/SVneo cells assessed as reduction in [3H]DG uptake preincubated for 20 mins followed by [3H]DG addition after 10 mins by liquid scintillation counting method; type: cell-based; details: Homo sapiens
[4] = Inhibition of human LDH5
[5] = biological target: T2, Solute carrier family 2, facilitated glucose transporter member 1; test: Inhibition of human GLUT1 expressed in human DLD1 cells assessed as reduction in glucose uptake; type: cell-based
[6] = biological target: T3, Solute carrier family 2, facilitated glucose transporter member 4 (Homo sapiens, UniProt P14672); test: Inhibition of human GLUT4 expressed in CHO cells assessed as reduction in glucose uptake; type: cell-based
T3 sequence (P14672 whole entry): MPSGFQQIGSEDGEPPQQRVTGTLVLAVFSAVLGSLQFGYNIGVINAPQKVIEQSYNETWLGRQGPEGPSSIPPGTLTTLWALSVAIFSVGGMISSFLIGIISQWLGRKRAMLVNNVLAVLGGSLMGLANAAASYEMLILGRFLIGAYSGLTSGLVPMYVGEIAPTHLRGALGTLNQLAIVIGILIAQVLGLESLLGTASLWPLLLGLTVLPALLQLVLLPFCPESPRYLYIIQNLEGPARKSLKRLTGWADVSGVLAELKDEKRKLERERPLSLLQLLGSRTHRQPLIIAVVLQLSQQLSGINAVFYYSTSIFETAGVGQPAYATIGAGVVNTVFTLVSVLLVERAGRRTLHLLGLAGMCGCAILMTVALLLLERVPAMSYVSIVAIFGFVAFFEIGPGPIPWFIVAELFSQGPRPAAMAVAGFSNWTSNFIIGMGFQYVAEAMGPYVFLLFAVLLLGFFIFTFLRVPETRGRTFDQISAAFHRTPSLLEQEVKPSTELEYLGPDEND

[7] = biological target: T2, Solute carrier family 2, facilitated glucose transporter member 1; test: Mixed type non-competitive inhibition of glucose displaceable binding of [4-3H]cytochalasin B to GLUT1 in human erythrocyte membranes after 10 mins; type: cell membranes
[8] = biological target: T2, Solute carrier family 2, facilitated glucose transporter member 1; test: Non-competitive inhibition of GLUT1-mediated facilitative uptake of [3H]-2-deoxy-D-glucose in human erythrocyte membranes; type: cell membranes
[9] = biological target: T2, Solute carrier family 2, facilitated glucose transporter member 1; test: Inhibition of GLUT1-mediated glucose uptake in human A549 cells assessed as reduction in ATP synthesis up to 30 mins in presence of mitochondrial function blocker antimycin A; type: cell-based
[10] = biological target: T2, Solute carrier family 2, facilitated glucose transporter member 1; test: Inhibition of GLUT1 (unknown origin)-mediated glucose uptake expressed in CHO-K1 cells assessed as reduction in ATP synthesis up to 30 mins in presence of mitochondrial function blocker antimycin A; type: cell-based
A2780S = test: Cytotoxicity against human A2780S cells; type: functional, cell-based
A2780cisR = test: Cytotoxicity against human A2780cisR cells; type: functional, cell-based
[11] = biological target: T1, Solute carrier family 2, facilitated glucose transporter member 4; test: Inhibition of GLUT4 in mouse 3T3L1 cells assessed as reduction in insulin-stimulated 2-deoxy-D-[14C]glucose uptake; type: cell-based
[12] = biological target: T2, Solute carrier family 2, facilitated glucose transporter member 1; test: Competitive inhibition of GLUT1 in human HL60 cells assessed as reduction in 2-[1,2-3H]deoxy-D-glucose uptake measured for 30 secs by double reciprocal plot analysis; type: cell-based
[13] = biological target: T2, Solute carrier family 2, facilitated glucose transporter member 1; test: Competitive inhibition of GLUT1 (unknown origin) expressed in CHO cells assessed as reduction in 2-[1,2-3H]deoxy-D-glucose uptake measured for 30 secs by double reciprocal plot analysis; type: cell-based
[14] = biological target: T2, Solute carrier family 2, facilitated glucose transporter member 1; test: Competitive inhibition of glucose displaceable binding of [4-3H]cytochalasin B to GLUT1 in human erythrocyte membranes after 10 mins by double reciprocal plot analysis; type: cell membranes

Compound: CC(C)(C)c1ccc(S(=O)(=O)NCc2ccc(C(=O)Nc3cccnc3)cc2)cc1
IC50 (RCC4): 7.9 µM

Compound: COc1ccc(CC(=O)N[C@@H](Cc2ccccc2Br)C(=O)N[C@@H](C)c2ccccc2)cc1
IC50 [5]: 0.14 µM
IC50 [6]: 0.09 µM

Compound: COc1cc([C@H]2Oc3cc([C@H]4Oc5cc(O)cc(O)c5C(=O)[C@@H]4O)ccc3O[C@@H]2CO)ccc1O [SILYBIN A]
Ki [1]: 60 µM

Compound: Cc1cc2c(C(C)C)c(O)c(O)c(C=O)c2c(O)c1-c1c(C)cc2c(C(C)C)c(O)c(O)c(C=O)c2c1O [GOSSYPOL]
Ki [7]: 20 µM

Compound: CCOC(=O)[C@@]12CN(C(=O)OC(C)(C)C)CC=C1N(CCc1ccc(OC)c(OC)c1)C(=O)[C@H]2CC(=O)NCc1cccc2ccccc12
Ki [8]: 0.8 µM
IC50 [9]: 3 µM
IC50 [10]: 1 µM

Compound: CC(=O)N[C@H](C(=O)N[C@H]1C(O)O[C@H](CO)[C@@H](O)[C@@H]1O)C(C)(C)SN=O (stereo partly drawn)
IC50 (A2780S): 0.0042 µM
IC50 (A2780cisR): 0.38 µM

The remaining lines, values ahead:

Ki [1]: 114 µM
Compound: COc1cc([C@H]2Oc3cc(-c4oc5cc(O)cc(O)c5c(=O)c4O)ccc3O[C@@H]2CO)ccc1O

IC50 [2]: 4 µM
Compound: O=c1c(O)c(-c2ccc(O)cc2)oc2cc(O)cc(O)c12 [KAEMPFEROL]

IC50 [3]: 3.55 µM
Compound: COc1cc(O)c(CC=C(C)C)c(O)c1C(=O)/C=C/c1ccc(O)cc1 [XANTHOHUMOL]

Ki [4]: 5.1 µM
Compound: COC(=O)c1cc2c(C(F)(F)F)cc(-c3ccccc3)cc2n1O

IC50 [11]: 20 µM
Ki [12]: 7 µM
Ki [13]: 7 µM
Ki [14]: 7 µM
Compound: O=c1c(-c2ccc(O)cc2)coc2cc(O)cc(O)c12 [GENISTEIN]
